Experimental data: ChEMBL document CHEMBL1649217, “Emergence of Klebsiella pneumoniae ST258 with KPC-2 in Poland” (2009)
Converted amounts (≈) assume the structure as drawn.

What was measured:
Format in all cases: functional
Escherichia coli [1] = experiment: Antimicrobial activity against rifampicin-resistant Escherichia coli A15 transconjugant expressing beta-lactamase SHV-12 by Etest
Escherichia coli [2] = experiment: Antimicrobial activity against rifampicin-resistant Escherichia coli A15 by Etest
Klebsiella pneumoniae [3] = experiment: Antimicrobial activity against Klebsiella pneumoniae isolate 2641/08 obtained from urine of patient with ischemic cardiomyopathy and several comorbidities by Etest
Escherichia coli [4] = experiment: Antimicrobial activity against rifampicin-resistant Escherichia coli A15 transconjugant expressing beta-lactamase KPC-2/TEM-1 by Etest
Escherichia coli [5] = experiment: Antimicrobial activity against rifampicin-resistant Escherichia coli A15 transconjugant expressing beta-lactamase SHV-12 by Etest in presence of beta-lactamase inhibitor clavulanic acid
Escherichia coli [6] = experiment: Antimicrobial activity against rifampicin-resistant Escherichia coli A15 by Etest in presence of beta-lactamase inhibitor clavulanic acid
Escherichia coli [7] = experiment: Antimicrobial activity against rifampicin-resistant Escherichia coli A15 transconjugant expressing beta-lactamase KPC-2/TEM-1 by Etest in presence of beta-lactamase inhibitor clavulanic acid
Klebsiella pneumoniae [8] = experiment: Antimicrobial activity against Klebsiella pneumoniae isolate 2641/08 obtained from urine of patient with ischemic cardiomyopathy and several comorbidities by Etest in presence of beta-lactamase inhibitor clavulanic acid; conditions: isolate 2641/08, Urine
Klebsiella pneumoniae [9] = experiment: Antimicrobial activity against Klebsiella pneumoniae isolate 2337/08 obtained from patient with ischemic cardiomyopathy and several comorbidities
Klebsiella pneumoniae [10] = experiment: Antimicrobial activity against Klebsiella pneumoniae isolate 2641/08 obtained from urine of patient with ischemic cardiomyopathy and several comorbidities by Etest in presence of beta-lactamase inhibitor Tazobactam; conditions: isolate 2641/08, Urine
Escherichia coli [11] = experiment: Antimicrobial activity against rifampicin-resistant Escherichia coli A15 transconjugant expressing beta-lactamase KPC-2/TEM-1 by Etest in presence of beta-lactamase inhibitor Tazobactam
Escherichia coli [12] = experiment: Antimicrobial activity against rifampicin-resistant Escherichia coli A15 by Etest in presence of beta-lactamase inhibitor Tazobactam
Escherichia coli [13] = experiment: Antimicrobial activity against rifampicin-resistant Escherichia coli A15 transconjugant expressing beta-lactamase SHV-12 by Etest in presence of beta-lactamase inhibitor Tazobactam

Row | Molecule | MIC (Escherichia coli [1]) [µg/mL] | MIC (Escherichia coli [2]) [µg/mL] | MIC (Klebsiella pneumoniae [3]; isolate 2641/08, Urine) [µg/mL] | MIC (Escherichia coli [4]) [µg/mL] | also measured
1 | CO/N=C(\C(=O)N[C@@H]1C(=O)N2C(C(=O)[O-])=C(C[N+]3(C)CCCC3)CS[C@H]12)c1csc(N)n1 | 0.5 (≈ 1.04 µM) | 0.047 (≈ 0.0978 µM) | > 32 | 1.5 (≈ 3.12 µM) | –
2 | NCC[C@H](O)C(=O)N[C@@H]1C[C@H](N)[C@@H](O[C@H]2O[C@H](CN)[C@@H](O)[C@H](O)[C@H]2O)[C@H](O)[C@H]1O[C@H]1O[C@H](CO)[C@@H](O)[C@H](N)[C@H]1O [AMIKACIN] | 1 (≈ 1.71 µM) | 1 (≈ 1.71 µM) | 12 (≈ 20.5 µM) | 1.5 (≈ 2.56 µM) | –
3 | CC1(C)S[C@@H]2[C@H](NC(=O)[C@H](N)c3ccc(O)cc3)C(=O)N2[C@H]1C(=O)O [AMOXICILLIN] | – | – | – | – | MIC (Escherichia coli [5]): 4 µg/mL; MIC (Escherichia coli [6]): 4 µg/mL; MIC (Escherichia coli [7]): 24 µg/mL; MIC (Klebsiella pneumoniae [8]): > 256 µg/mL
4 | CC1(C)S[C@@H]2[C@H](NC(=O)[C@H](N)c3ccccc3)C(=O)N2[C@H]1C(=O)O [AMPICILLIN] | > 256 | 3 (≈ 8.59 µM) | > 256 | > 256 | –
5 | CO/N=C(\C(=O)N[C@@H]1C(=O)N2C(C(=O)O)=C(COC(C)=O)CS[C@H]12)c1csc(N)n1 [CEFOTAXIME] | 1.5 (≈ 3.29 µM) | 0.047 (≈ 0.103 µM) | 128 (≈ 281 µM) | 2 (≈ 4.39 µM) | –
6 | CC(C)(O/N=C(\C(=O)N[C@@H]1C(=O)N2C(C(=O)[O-])=C(C[n+]3ccccc3)CS[C@H]12)c1csc(N)n1)C(=O)O [CEFTAZIDIME] | 16 (≈ 29.3 µM) | 0.25 (≈ 0.457 µM) | > 256 | 3 (≈ 5.49 µM) | –
7 | O=C(O)c1cn(C2CC2)c2cc(N3CCNCC3)c(F)cc2c1=O [CIPROFLOXACIN] | – | – | > 32 | – | –
8 | C[C@@H](O)[C@H]1C(=O)N2C(C(=O)O)=C(SCCNC=N)C[C@H]12 [IMIPENEM ANHYDROUS] | 0.25 (≈ 0.835 µM) | 0.25 (≈ 0.835 µM) | 2 (≈ 6.68 µM) | 3 (≈ 10 µM) | MIC (Klebsiella pneumoniae [9]): 2 µg/mL (≈ 6.68 µM)
9 | C[C@@H](O)[C@H]1C(=O)N2C(C(=O)O)=C(S[C@@H]3CN[C@H](C(=O)N(C)C)C3)[C@H](C)[C@H]12 [MEROPENEM] | 0.047 (≈ 0.123 µM) | 0.032 (≈ 0.0834 µM) | 3 (≈ 7.82 µM) | 0.75 (≈ 1.96 µM) | –
10 | CCN1CCN(C(=O)N[C@@H](C(=O)N[C@@H]2C(=O)N3[C@@H]2SC(C)(C)[C@@H]3C(=O)O)c2ccccc2)C(=O)C1=O [PIPERACILLIN] | 32 (≈ 61.8 µM) | 1.5 (≈ 2.9 µM) | > 256 | 96 (≈ 185 µM) | MIC (Klebsiella pneumoniae [10]): > 256 µg/mL; MIC (Escherichia coli [11]): 48 µg/mL; MIC (Escherichia coli [12]): 1 µg/mL; MIC (Escherichia coli [13]): 1 µg/mL
11 | CN(C)[C@@H]1C(O)=C(C(N)=O)C(=O)[C@@]2(O)C(O)=C3C(=O)c4c(O)cccc4[C@@](C)(O)[C@H]3C[C@@H]12 [TETRACYCLINE] | 1.5 (≈ 3.38 µM) | 2 (≈ 4.5 µM) | 32 (≈ 72 µM) | 2 (≈ 4.5 µM) | –
12 | CN(C)c1cc(NC(=O)CNC(C)(C)C)c(O)c2c1C[C@H]1C[C@H]3[C@H](N(C)C)C(O)=C(C(N)=O)C(=O)[C@@]3(O)C(O)=C1C2=O [TIGECYCLINE] | 0.38 (≈ 0.649 µM) | 0.38 (≈ 0.649 µM) | 3 (≈ 5.12 µM) | 0.38 (≈ 0.649 µM) | –
13 | COLISTIN | 0.19 | 0.25 | – | 0.25 | MIC (Klebsiella pneumoniae [3]): 0.38 µg/mL
14 | GENTAMICIN | 0.19 | 0.19 | – | 0.25 | MIC (Klebsiella pneumoniae [3]): 1 µg/mL
